Measured values taken from PubChem BioAssay (NCI).
Where “and” joins values, the source holds several entries; their conditions need not be identical. Equal values may be shown once.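 Growth conditions: 96-well plates. Treatment: test compound, 48 hours, 5 concentrations. Analysis: linear interpolation between bracketing concentrations; unreached endpoints set to highest concentration. GI50 = concentration required for 50% inhibition of growth. The concentration for full growth arrest is given as TGI.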

Legend:
Test in all cases: NCI tumour cell line growth inhibition, 48 h
MALME-3M melanoma = system: MALME-3M melanoma
SF-268 CNS = system: SF-268 CNS
LOX IMVI melanoma = system: LOX IMVI melanoma
HCT-116 colon = system: HCT-116 colon
NCI-H460 lung = system: NCI-H460 lung
UO-31 renal = system: UO-31 renal
HT29 colon = system: HT29 colon
786-0 renal = system: 786-0 renal
HCC-2998 colon = system: HCC-2998 colon
UACC-62 melanoma = system: UACC-62 melanoma

SMILES	GI50 (MALME-3M melanoma) [µM]	TGI (MALME-3M melanoma)	GI50 (SF-268 CNS) [µM]	TGI (SF-268 CNS) [µM]	GI50 (LOX IMVI melanoma) [µM]	TGI (LOX IMVI melanoma)	GI50 (HCT-116 colon) [µM]	TGI (HCT-116 colon)	GI50 (NCI-H460 lung) [µM]	GI50 (UO-31 renal) [µM]	TGI (UO-31 renal)	GI50 (HT29 colon) [µM]	TGI (HT29 colon)	GI50 (786-0 renal) [µM]	TGI (786-0 renal) [µM]	GI50 (HCC-2998 colon) [µM]	GI50 (UACC-62 melanoma) [µM]	TGI (UACC-62 melanoma)	TGI (NCI-H460 lung)	TGI (HCC-2998 colon)
COc1cc2c(c(OC)c1OC)-c1ccc(NNC(N)=S)c(=O)cc1[C@@H](NC(C)=O)CC2	2.8	> 100 µM	0.509	> 100	0.687	> 100 µM	0.348	> 32.6 µM	0.397	> 25.9	> 100 µM	0.365	> 100 µM	0.867	> 100	0.263	0.666	> 100 µM	–	–
Cc1c(C(=O)C/C(=N/NC(=O)c2ccccc2O)C(=O)Nc2ccccc2C(C)C)[n+](=O)c2ccccc2n1[O-]	–	> 100 µM	–	> 100	–	> 100 µM	–	> 100 µM	–	–	–	–	> 100 µM	–	> 100	–	–	77.7 µM	> 100 µM	> 100 µM
OCCN(CCO)c1ncnc2c1ncn2Cc1ccc(CCl)cc1	12.8	27.3 µM	19.8	49.8	16.4	30.9 µM	14	33.8 µM	14.2	14.9	31 µM	32.5	> 100 µM	20.4	37.8	15.4	18	33.5 µM	30.8 µM	28.9 µM
O=C(Nc1ccccc1)c1c(O)[nH]c(=S)[nH]c1=O	58.5	96.6 µM and > 250 µM	–	125	54	73.6 µM and > 250 µM	58.6	111 µM and > 250 µM	29.5	65.4	65.9 µM and 174 µM	93.5	125 µM and > 250 µM	–	92.1	95.3	33	55.2 µM and 162 µM	101 µM and > 250 µM	120 µM and > 250 µM
COc1ccc(CC2c3cc4c(cc3CCN2C)OCO4)c(C=O)c1OC (stereo unspecified)	–	> 100 µM	–	> 100	–	> 100 µM	–	> 100 µM	–	–	> 100 µM	–	> 100 µM	–	> 100	–	–	> 100 µM	> 100 µM	> 100 µM
CCCCCCCCCCCC(=O)OCCOCCOCCOCCOCCOCc1ccccc1	–	> 100 µM	–	> 100	–	> 100 µM	–	> 100 µM	–	–	> 100 µM	–	> 100 µM	–	> 100	–	–	> 100 µM	> 100 µM	> 100 µM
CC1(C)C(=O)/C=C\C(=O)C(C)(C)C2=CC=C(O2)C(C)(C)C(=O)/C=C\C(=O)C(C)(C)C2=CC=C1O2	–	> 100 µM	–	> 100	–	> 100 µM	–	> 100 µM	–	–	–	–	> 100 µM	–	> 100	–	–	–	> 100 µM	> 100 µM
CCOC(=O)C(C)(C)Oc1ccc2c(-c3ccccc3)cc(=O)oc2c1	–	73.6 µM	–	> 100	–	49.4 µM	–	> 100 µM	–	–	76 µM	–	–	–	> 100	–	–	38.6 µM	> 100 µM	> 100 µM
CCOC(=O)CCC1(C(=O)OCC)CCCCC1=O (stereo unspecified)	–	> 100 µM	–	> 100	–	> 100 µM	–	> 100 µM	–	–	> 100 µM	–	> 100 µM	–	> 100	–	–	–	> 100 µM	> 100 µM
